Data: PMC5218480 (PLoS ONE, 2017)

Tested on: MV-4-11 cells
Assay: Gene expression microarray analysis (Affymetrix PrimeView) and GSEA
Type: cell-based, human
Set-up: RFU PODN (11730768_x_at) / Fold change /veh PODN (11730768_x_at) / RFU LINC00158 (11744669_a_at) / Fold change /veh LINC00158 (11744669_a_at) / RFU DUSP10 (11751237_a_at) / Fold change /veh DUSP10 (11751237_a_at) / RFU ID3 (11757404_x_at) / Fold change /veh ID3 (11757404_x_at) / RFU PLEKHG5 (11737974_s_at) / Fold change /veh PLEKHG5 (11737974_s_at) / RFU LRRC4B (11730491_at) / Fold change /veh LRRC4B (11730491_at) / RFU GIMAP4 (11747438_a_at) / Fold change /veh GIMAP4 (11747438_a_at) / RFU KRT8 (11758183_x_at) / Fold change /veh KRT8 (11758183_x_at) / RFU CNN1 (11734310_a_at) / Fold change /veh CNN1 (11734310_a_at) / RFU VPS37D (11726825_at) / Fold change /veh VPS37D (11726825_at) / RFU C10orf10 (11716522_x_at) / Fold change /veh C10orf10 (11716522_x_at) / RFU KIR2DL2 /// KIR2DL4 /// KIR2DL5A /// KIR2DL5B /// KIR2DS1 /// KIR2DS2 /// KIR2DS3 /// KIR2DS4 /// KIR3DL3 /// KIR3DL3 /// KIR3DS1 (11738374_at) / Fold change /veh KIR2DL2 /// KIR2DL4 /// KIR2DL5A /// KIR2DL5B /// KIR2DS1 /// KIR2DS2 /// KIR2DS3 /// KIR2DS4 /// KIR3DL3 /// KIR3DL3 /// KIR3DS1 (11738374_at) / RFU C1QL1 (11718748_at) / Fold change /veh C1QL1 (11718748_at) / RFU TMPRSS4 (11747572_a_at) / Fold change /veh TMPRSS4 (11747572_a_at) / RFU HAMP (11756126_x_at) / Fold change /veh HAMP (11756126_x_at) / RFU RNFT2 (11725882_a_at) / Fold change /veh RNFT2 (11725882_a_at) / RFU NR4A2 (11747474_a_at) / Fold change /veh NR4A2 (11747474_a_at) / RFU ABCC12 (11746883_a_at) / Fold change /veh ABCC12 (11746883_a_at) / RFU TMEM136 (11760407_x_at) / Fold change /veh TMEM136 (11760407_x_at) / RFU CLDN22 /// WWC2 (11732394_at) / Fold change /veh CLDN22 /// WWC2 (11732394_at) / RFU HLA-DPB1 (11760878_x_at) / Fold change /veh HLA-DPB1 (11760878_x_at) / RFU SPINT1 (11716480_a_at) / Fold change /veh SPINT1 (11716480_a_at) / RFU GAP43 (11754022_s_at) / Fold change /veh GAP43 (11754022_s_at) / RFU A4GNT (11735810_at) / Fold change /veh A4GNT (11735810_at) / RFU PRB3 (11715151_x_at) / Fold change /veh PRB3 (11715151_x_at) / RFU TUBB4B (11761932_at) / Fold change /veh TUBB4B (11761932_at) / RFU CAPN14 (11732068_a_at) / Fold change /veh CAPN14 (11732068_a_at) / RFU TMCC2 (11721928_a_at) / Fold change /veh TMCC2 (11721928_a_at) / RFU IRGQ (11745062_a_at) / Fold change /veh IRGQ (11745062_a_at) / RFU FAM174B (11720279_a_at) / Fold change /veh FAM174B (11720279_a_at) / RFU TMPRSS4 (11748680_a_at) / Fold change /veh TMPRSS4 (11748680_a_at) / RFU FAM212B (11763350_a_at) / Fold change /veh FAM212B (11763350_a_at) / RFU PLEKHG5 (11743358_a_at) / Fold change /veh PLEKHG5 (11743358_a_at) / RFU ZSCAN30 (11745921_a_at) / Fold change /veh ZSCAN30 (11745921_a_at) / RFU CMKLR1 (11741424_a_at) / Fold change /veh CMKLR1 (11741424_a_at) / RFU LOC101060620 /// MAPK8IP1 (11723275_at) / Fold change /veh LOC101060620 /// MAPK8IP1 (11723275_at) / RFU SPTSSB (11747773_x_at) / Fold change /veh SPTSSB (11747773_x_at) / RFU PRSS12 (11739890_at) / Fold change /veh PRSS12 (11739890_at) / RFU BIN1 (11741810_x_at) / Fold change /veh BIN1 (11741810_x_at) / RFU WNT11 (11732464_a_at) / Fold change /veh WNT11 (11732464_a_at) / RFU C10orf10 (11716521_a_at) / Fold change /veh C10orf10 (11716521_a_at) / RFU C5orf56 (11738089_at) / Fold change /veh C5orf56 (11738089_at) / RFU CYB561 (11721691_x_at) / Fold change /veh CYB561 (11721691_x_at) / RFU ANKRD19P (11752326_a_at) / Fold change /veh ANKRD19P (11752326_a_at) / RFU OR2T12 /// OR2T33 /// OR2T8 (11738714_s_at) / Fold change /veh OR2T12 /// OR2T33 /// OR2T8 (11738714_s_at) / RFU VCAN (11748164_a_at) / Fold change /veh VCAN (11748164_a_at) / RFU JSRP1 (11732532_at) / Fold change /veh JSRP1 (11732532_at) / RFU KRTAP10-11 (11738290_x_at) / Fold change /veh KRTAP10-11 (11738290_x_at) / RFU MYO3A (11730013_a_at) / Fold change /veh MYO3A (11730013_a_at) / RFU EBF3 (11725865_a_at) / Fold change /veh EBF3 (11725865_a_at) / RFU CAMK2N1 (11719241_x_at) / Fold change /veh CAMK2N1 (11719241_x_at) / RFU C5orf56 (11738088_a_at) / Fold change /veh C5orf56 (11738088_a_at) / RFU OLFML3 (11715873_a_at) / Fold change /veh OLFML3 (11715873_a_at) / RFU LOC100653217 /// NTM (11731650_a_at) / Fold change /veh LOC100653217 /// NTM (11731650_a_at) / RFU MAPK11 (11762145_a_at) / Fold change /veh MAPK11 (11762145_a_at) / RFU FIZ1 (11724087_x_at) / Fold change /veh FIZ1 (11724087_x_at) / RFU OASL (11726364_x_at) / Fold change /veh OASL (11726364_x_at) / RFU SOX15 (11748057_x_at) / Fold change /veh SOX15 (11748057_x_at) / RFU CD79A (11719716_a_at) / Fold change /veh CD79A (11719716_a_at) / RFU HIST1H1D (11736915_at) / Fold change /veh HIST1H1D (11736915_at) / RFU CASKIN2 (11723855_a_at) / Fold change /veh CASKIN2 (11723855_a_at) / RFU LOC730098 (11760151_x_at) / Fold change /veh LOC730098 (11760151_x_at) / RFU OR4N2 (11742367_at) / Fold change /veh OR4N2 (11742367_at) / RFU PRRT2 (11749266_a_at) / Fold change /veh PRRT2 (11749266_a_at) / RFU SNX32 (11753110_a_at) / Fold change /veh SNX32 (11753110_a_at) / RFU CDHR5 (11726645_a_at) / Fold change /veh CDHR5 (11726645_a_at) / RFU RCAN1 (11760418_a_at) / Fold change /veh RCAN1 (11760418_a_at) / RFU FAM167A (11723789_a_at) / Fold change /veh FAM167A (11723789_a_at) / RFU FAM26E (11764081_at) / Fold change /veh FAM26E (11764081_at) / RFU ISYNA1 (11749810_s_at) / Fold change /veh ISYNA1 (11749810_s_at) / RFU ACY1 (11761880_at) / Fold change /veh ACY1 (11761880_at) / RFU 11764098_at / Fold change /veh 11764098_at / RFU SAMD14 (11745864_x_at) / Fold change /veh SAMD14 (11745864_x_at) / RFU NPB (11741838_a_at) / Fold change /veh NPB (11741838_a_at) / RFU TMPRSS6 (11731388_a_at) / Fold change /veh TMPRSS6 (11731388_a_at) / RFU KRTAP10-2 (11738614_at) / Fold change /veh KRTAP10-2 (11738614_at) / RFU ARHGAP8 /// PRR5-ARHGAP8 (11727945_x_at) / Fold change /veh ARHGAP8 /// PRR5-ARHGAP8 (11727945_x_at) / RFU KRTAP5-7 /// NADSYN1 (11734609_at) / Fold change /veh KRTAP5-7 /// NADSYN1 (11734609_at) / RFU RASL12 (11751679_a_at) / Fold change /veh RASL12 (11751679_a_at) / RFU CDKN2B (11736163_a_at) / Fold change /veh CDKN2B (11736163_a_at) / RFU PRF1 (11729649_at) / Fold change /veh PRF1 (11729649_at) / RFU, ZNF638 /// ZNF638-IT1 / Fold change vs veh, ZNF638 /// ZNF638-IT1 / RFU, PANK3 / Fold change vs veh, PANK3 / RFU, SH3YL1 / Fold change vs veh, SH3YL1 / RFU, ZEB2 / Fold change vs veh, ZEB2 / RFU, NRIP1 / Fold change vs veh, NRIP1 / RFU, PTTG1IP / Fold change vs veh, PTTG1IP / RFU, CAPN2 / Fold change vs veh, CAPN2 / RFU, MED14 / Fold change vs veh, MED14 / RFU, SNORA58 / Fold change vs veh, SNORA58 / RFU, C1orf63 / Fold change vs veh, C1orf63 / RFU, LRRFIP1 / Fold change vs veh, LRRFIP1 / RFU, NDUFAF7 / Fold change vs veh, NDUFAF7 / RFU, SLC12A2 / Fold change vs veh, SLC12A2 / RFU, IBTK / Fold change vs veh, IBTK / RFU, ESF1 / Fold change vs veh, ESF1 / Fold change vs veh, TMEM50B / RFU, TAOK1 / Fold change vs veh, TAOK1 / RFU, ACBD3 / Fold change vs veh, ACBD3 / RFU, TMA16 / Fold change vs veh, TMA16 / RFU, RWDD3 / Fold change vs veh, RWDD3 / RFU, BCAT1 / Fold change vs veh, BCAT1 / RFU, EDEM3 / Fold change vs veh, EDEM3 / RFU, TMEM33 / Fold change vs veh, TMEM33 / RFU, WDR75 / Fold change vs veh, WDR75 / RFU, AHCTF1 / Fold change vs veh, AHCTF1 / RFU, TFRC / Fold change vs veh, TFRC / RFU, ZDHHC17 / Fold change vs veh, ZDHHC17 / RFU, NOM1 / Fold change vs veh, NOM1 / RFU, ARL8B / Fold change vs veh, ARL8B / RFU, ZBTB11 / Fold change vs veh, ZBTB11 / RFU, TAMM41 / Fold change vs veh, TAMM41 / RFU, KIAA1704 /// LOC100996395 / Fold change vs veh, KIAA1704 /// LOC100996395 / RFU, ING1 / Fold change vs veh, ING1 / RFU, TRMT61B / Fold change vs veh, TRMT61B / RFU, FUBP3 / Fold change vs veh, FUBP3 / RFU, TP53 / Fold change vs veh, TP53 / RFU, TNKS2 / Fold change vs veh, TNKS2 / RFU, ZFP14 / Fold change vs veh, ZFP14 / RFU, ACTR2 / Fold change vs veh, ACTR2 / RFU, PPP3R1 / Fold change vs veh, PPP3R1 / RFU, PIK3R1 / Fold change vs veh, PIK3R1 / RFU, HNRNPA1 / Fold change vs veh, HNRNPA1 / RFU, RNF170 / Fold change vs veh, RNF170 / RFU, ZNF28 / Fold change vs veh, ZNF28 / RFU, RNGTT / Fold change vs veh, RNGTT / RFU, OGT / Fold change vs veh, OGT / RFU, BRD1 / Fold change vs veh, BRD1 / RFU, MARS / Fold change vs veh, MARS / RFU, ZNF655 / Fold change vs veh, ZNF655 / RFU, FAHD1 / Fold change vs veh, FAHD1 / RFU, BDP1 / Fold change vs veh, BDP1 / RFU, LRRCC1 / Fold change vs veh, LRRCC1 / RFU, ARID1A / Fold change vs veh, ARID1A / RFU, ZNF146 / Fold change vs veh, ZNF146 / RFU, ZNF330 / Fold change vs veh, ZNF330 / RFU, GPN3 / Fold change vs veh, GPN3 / RFU, C9orf123 / Fold change vs veh, C9orf123 / RFU, N4BP2L2 / Fold change vs veh, N4BP2L2 / RFU, ARFIP1 / Fold change vs veh, ARFIP1 / RFU, FAM179B / Fold change vs veh, FAM179B / RFU, BCL10 / Fold change vs veh, BCL10 / RFU, UHRF1BP1L / Fold change vs veh, UHRF1BP1L / RFU, BET1 / Fold change vs veh, BET1 / RFU, CNOT2 / Fold change vs veh, CNOT2 / RFU, ZNF268 / Fold change vs veh, ZNF268 / Fold change vs veh, ZNF507 / RFU, DGCR2 / Fold change vs veh, DGCR2 / RFU, WDSUB1 / Fold change vs veh, WDSUB1 / Fold change vs veh, HSP90B1 /// MIR3652 / RFU, ADSS / Fold change vs veh, ADSS / RFU, GK / Fold change vs veh, GK / RFU, ZNF148 / Fold change vs veh, ZNF148 / RFU, TAF9 / Fold change vs veh, TAF9 / RFU, SLC1A5 / Fold change vs veh, SLC1A5 / RFU, SLMO2 / Fold change vs veh, SLMO2 / RFU, ABCC4 / Fold change vs veh, ABCC4 / RFU, LOC101060439 /// RAP1B / Fold change vs veh, LOC101060439 /// RAP1B / RFU, RFX7 / Fold change vs veh, RFX7 / RFU, GTPBP10 / Fold change vs veh, GTPBP10 / RFU, CNEP1R1 / Fold change vs veh, CNEP1R1 / RFU, BIVM-ERCC5 /// ERCC5 / Fold change vs veh, BIVM-ERCC5 /// ERCC5 / RFU, ILF3 / Fold change vs veh, ILF3 / RFU 11762660_at / Fold change /veh 11762660_at / RFU VCAN (11757783_s_at) / Fold change /veh VCAN (11757783_s_at) / RFU DDX43 (11728927_at) / Fold change /veh DDX43 (11728927_at) / RFU KRT8 (11758188_x_at) / Fold change /veh KRT8 (11758188_x_at) / RFU NKD1 (11759106_at) / Fold change /veh NKD1 (11759106_at) / RFU SRD5A1 (11742802_a_at) / Fold change /veh SRD5A1 (11742802_a_at) / RFU TPSAB1 /// TPSB2 (11721975_s_at) / Fold change /veh TPSAB1 /// TPSB2 (11721975_s_at) / RFU GSTM3 (11746129_a_at) / Fold change /veh GSTM3 (11746129_a_at) / RFU IL23R (11737362_x_at) / Fold change /veh IL23R (11737362_x_at) / RFU TMEM51 (11727254_a_at) / Fold change /veh TMEM51 (11727254_a_at) / RFU PIWIL2 (11732686_x_at) / Fold change /veh PIWIL2 (11732686_x_at) / RFU ORM1 (11744905_x_at) / Fold change /veh ORM1 (11744905_x_at) / RFU CCDC152 (11743942_at) / Fold change /veh CCDC152 (11743942_at) / RFU ECM1 (11717891_a_at) / Fold change /veh ECM1 (11717891_a_at) / RFU IL23R (11748794_a_at) / Fold change /veh IL23R (11748794_a_at) / RFU TNFAIP8L3 (11732012_x_at) / Fold change /veh TNFAIP8L3 (11732012_x_at) / RFU MBOAT4 (11741988_at) / Fold change /veh MBOAT4 (11741988_at) / RFU 11764193_at / Fold change /veh 11764193_at / RFU TMEM53 (11763286_at) / Fold change /veh TMEM53 (11763286_at) / RFU MAGEB2 (11727129_at) / Fold change /veh MAGEB2 (11727129_at) / RFU TMEM200A (11744735_a_at) / Fold change /veh TMEM200A (11744735_a_at) / RFU CCDC152 (11751479_a_at) / Fold change /veh CCDC152 (11751479_a_at) / RFU FAM211A (11726209_a_at) / Fold change /veh FAM211A (11726209_a_at) / RFU RGS16 (11746705_a_at) / Fold change /veh RGS16 (11746705_a_at) / RFU VCAN (11755009_s_at) / Fold change /veh VCAN (11755009_s_at) / RFU RHOB (11743442_s_at) / Fold change /veh RHOB (11743442_s_at) / RFU RGS16 (11720943_a_at) / Fold change /veh RGS16 (11720943_a_at) / RFU RGS16 (11720944_at) / Fold change /veh RGS16 (11720944_at) / RFU, VPS4B / Fold change vs veh, VPS4B / RFU, CREB1 / Fold change vs veh, CREB1 / RFU, DNAJC13 / Fold change vs veh, DNAJC13 / RFU, GNAQ / Fold change vs veh, GNAQ / RFU, CDK5R1 / Fold change vs veh, CDK5R1 / RFU, ZRANB3 / Fold change vs veh, ZRANB3 / RFU, CUL4A / Fold change vs veh, CUL4A / RFU, CCNY / Fold change vs veh, CCNY / RFU, UFL1 / Fold change vs veh, UFL1 / RFU, COG3 / Fold change vs veh, COG3 / RFU, DIAPH2 / Fold change vs veh, DIAPH2 / RFU, SKA2 / Fold change vs veh, SKA2 / RFU, AFF3 / Fold change vs veh, AFF3 / RFU, LMF1 / Fold change vs veh, LMF1 / RFU, IPO11 / Fold change vs veh, IPO11 / RFU, DFFB / Fold change vs veh, DFFB / RFU, FOXP1 / Fold change vs veh, FOXP1 / RFU, CARD8 / Fold change vs veh, CARD8 / RFU, STRN3 / Fold change vs veh, STRN3 / RFU, ADK / Fold change vs veh, ADK / RFU, RASSF2 / Fold change vs veh, RASSF2 / RFU, WIPF1 / Fold change vs veh, WIPF1 / RFU, LARP1B / Fold change vs veh, LARP1B / RFU, RASA1 / Fold change vs veh, RASA1 / RFU, RB1 / Fold change vs veh, RB1 / RFU, PPFIA1 / Fold change vs veh, PPFIA1 / RFU, MAT2A / Fold change vs veh, MAT2A / RFU, CCT5 / Fold change vs veh, CCT5 / RFU, WDR92 / Fold change vs veh, WDR92 / RFU, CUX1 / Fold change vs veh, CUX1 / RFU, TTC7A / Fold change vs veh, TTC7A / RFU, TMEM135 / Fold change vs veh, TMEM135 / RFU, DEPTOR / Fold change vs veh, DEPTOR / RFU, CPM / Fold change vs veh, CPM / RFU, DNAJB6 / Fold change vs veh, DNAJB6 / RFU, CACNA2D3 / Fold change vs veh, CACNA2D3 / RFU, DTX4 / Fold change vs veh, DTX4 / RFU, TFCP2 / Fold change vs veh, TFCP2 / RFU, GMCL1 /// GMCL1P1 / Fold change vs veh, GMCL1 /// GMCL1P1 / RFU, AEBP2 / Fold change vs veh, AEBP2 / RFU, SNHG1 /// SNORD22 /// SNORD25 /// SNORD26 /// SNORD27 /// SNORD28 /// SNORD29 /// SNORD31 / Fold change vs veh, SNHG1 /// SNORD22 /// SNORD25 /// SNORD26 /// SNORD27 /// SNORD28 /// SNORD29 /// SNORD31 / Fold change (Aza/veh), C12orf56 (ProbeSet 11735607_a_at) / Fold change (ACY-1035/veh), C12orf56 (ProbeSet 11735607_a_at) / Fold change (Aza/veh), FGFR1OP (ProbeSet 11751329_s_at) / Fold change (ACY-1035/veh), FGFR1OP (ProbeSet 11751329_s_at) / Fold change (Aza/veh), VPS36 (ProbeSet 11739960_a_at) / Fold change (ACY-1035/veh), VPS36 (ProbeSet 11739960_a_at) / RFU SYPL1 (11715823_x_at) / Fold change /veh SYPL1 (11715823_x_at) / RFU IGFBP7 (11715501_s_at) / Fold change /veh IGFBP7 (11715501_s_at) / RFU REEP3 (11722064_at) / Fold change /veh REEP3 (11722064_at) / RFU IGLL1 (11728026_x_at) / Fold change /veh IGLL1 (11728026_x_at): dose or concentration left out as unconfirmed
Details: MV-4-11 cells, 48 hours

Nc1ncn([C@@H]2O[C@H](CO)[C@@H](O)[C@H]2O)c(=O)n1 [azacitidine]
RFU ABCC12 (11746883_a_at): 6.52 RFU
